Drawing on ChEMBL document CHEMBL1141434, “Chlorocyclinones A-D, chlorinated angucyclinones from Streptomyces sp. strongly antagonizing rosiglitazone-induced PPAR-gamma activation” (J Nat Prod, 2007), this text covers IC50 and EC50 for four compounds.

For assay [1], the target named is T1, Peroxisome proliferator-activated receptor gamma (Homo sapiens, UniProt P37231).
T1 sequence (P37231 whole entry): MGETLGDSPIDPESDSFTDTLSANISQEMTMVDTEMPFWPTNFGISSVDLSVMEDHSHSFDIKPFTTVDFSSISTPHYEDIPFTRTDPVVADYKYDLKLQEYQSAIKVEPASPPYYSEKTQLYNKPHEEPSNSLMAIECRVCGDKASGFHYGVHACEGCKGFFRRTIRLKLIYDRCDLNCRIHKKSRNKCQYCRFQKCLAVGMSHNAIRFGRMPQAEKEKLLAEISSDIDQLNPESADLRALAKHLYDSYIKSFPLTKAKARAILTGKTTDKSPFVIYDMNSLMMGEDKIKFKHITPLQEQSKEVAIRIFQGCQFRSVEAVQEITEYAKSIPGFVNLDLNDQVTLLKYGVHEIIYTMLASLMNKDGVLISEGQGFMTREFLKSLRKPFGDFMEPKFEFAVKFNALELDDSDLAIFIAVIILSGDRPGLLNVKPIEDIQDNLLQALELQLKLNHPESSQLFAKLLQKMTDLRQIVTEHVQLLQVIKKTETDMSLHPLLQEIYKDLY
The experiment in a line: Antagonist activity at human PPARgamma receptor assessed as rosiglitazone-induced receptor activation by alphascreen assay. Format: functional.

The target of assay [2] is T1, Peroxisome proliferator-activated receptor gamma. The experiment in a line: Displacement of [3H]rosiglitazone from human PPARgamma receptor by scintillation proximity assay.
Assay [3] shares this target. The experiment in a line: Antagonist activity at human PPARgamma receptor in CHO-K1 cells assessed as rosiglitazone-induced receptor activation by cell based reporter assay. Format: functional.

For the compound `CCc1c(C(=O)OC)cc2c(c1O)C(=O)c1c(O)cc3cc(C)c(Cl)c(OC)c3c1C2=O` [CHLOROCYCLINONE A], the IC50 (as a rule, the concentration needed to halve the response being measured) in assay [1] is 160 nM; in assay [3], 7000 nM. In addition, a half-maximal response in assay [2] (EC50) required 180 nM.
In the case of `COC(=O)c1cc2c(c(O)c1C(C)OC(C)=O)C(=O)c1c(O)cc3cc(C)c(Cl)c(OC)c3c1C2=O` (configuration not stated) [CHLOROCYCLINONE B], the IC50 turned out to be 100 nM in assay [1] and 1400 nM in assay [3]. For the same compound, it took 160 nM to reach a half-maximal effect in assay [2] (EC50).
On the same counts, the results for `COC(=O)c1cc2c(c(O)c1C(C)OC(=O)CO)C(=O)c1c(O)cc3cc(C)c(Cl)c(OC)c3c1C2=O` (configuration not stated) [CHLOROCYCLINONE C] are 90 nM, 600 nM and 130 nM.
As for `COc1c(Cl)c(C)cc2cc(O)c3c(c12)C(=O)c1cc2c(c(O)c1C3=O)C(C)OC2=O` (configuration not stated) [CHLOROCYCLINONE D], the IC50 in assay [1] was found to be 320 nM; in assay [3] it was 4400 nM. Also, the response in assay [2] was half-maximal at 260 nM (EC50).
